Measurements: PubChem BioAssay (NCI)
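A five-concentration, 48-hour dose response in 96-well plates underlies each endpoint, interpolated linearly between surrounding concentrations. TGI: concentration producing complete growth inhibition.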

What was measured:
Assay in all cases: DTP human tumour cell line panel, 48 h
TK-10 renal = test system: TK-10 renal
A549 NSCLC = test system: A549 NSCLC
UACC-62 melanoma = test system: UACC-62 melanoma
NCI-H226 lung = test system: NCI-H226 lung
IGROV1 ovarian = test system: IGROV1 ovarian
K-562 leukemia = test system: K-562 leukemia
NCI-H460 lung = test system: NCI-H460 lung
SN12C renal = test system: SN12C renal
MDA-MB-435 = test system: MDA-MB-435
OVCAR-4 ovarian = test system: OVCAR-4 ovarian
CAKI-1 renal = test system: CAKI-1 renal
UACC-257 melanoma = test system: UACC-257 melanoma
M14 melanoma = test system: M14 melanoma
MALME-3M melanoma = test system: MALME-3M melanoma
HS 578T breast = test system: HS 578T breast
NCI-H23 lung = test system: NCI-H23 lung
T-47D breast = test system: T-47D breast
RXF 393 renal = test system: RXF 393 renal
SNB-75 CNS = test system: SNB-75 CNS
HCT-15 colon = test system: HCT-15 colon
U251 CNS = test system: U251 CNS
DU-145 prostate = test system: DU-145 prostate
SNB-19 CNS = test system: SNB-19 CNS
SK-OV-3 ovarian = test system: SK-OV-3 ovarian
SF-539 CNS = test system: SF-539 CNS
OVCAR-3 ovarian = test system: OVCAR-3 ovarian
EKVX NSCLC = test system: EKVX NSCLC
HCT-116 colon = test system: HCT-116 colon
NCI-H522 lung = test system: NCI-H522 lung
A498 renal = test system: A498 renal
OVCAR-8 ovarian = test system: OVCAR-8 ovarian
MDA-N = test system: MDA-N
PC-3 prostate = test system: PC-3 prostate
SF-295 CNS = test system: SF-295 CNS
COLO 205 colon = test system: COLO 205 colon
786-0 renal = test system: 786-0 renal
ACHN renal = test system: ACHN renal
NCI/ADR-RES ovarian = test system: NCI/ADR-RES ovarian
LOX IMVI melanoma = test system: LOX IMVI melanoma
KM12 colon = test system: KM12 colon
SK-MEL-5 melanoma = test system: SK-MEL-5 melanoma
SF-268 CNS = test system: SF-268 CNS
HOP-62 NSCLC = test system: HOP-62 NSCLC
SR leukemia = test system: SR leukemia
OVCAR-5 ovarian = test system: OVCAR-5 ovarian
CCRF-CEM leukemia = test system: CCRF-CEM leukemia
MCF7 breast = test system: MCF7 breast
HT29 colon = test system: HT29 colon
SW-620 colon = test system: SW-620 colon
HL-60(TB) leukemia = test system: HL-60(TB) leukemia
SK-MEL-2 melanoma = test system: SK-MEL-2 melanoma
MOLT-4 leukemia = test system: MOLT-4 leukemia
RPMI-8226 leukemia = test system: RPMI-8226 leukemia
SK-MEL-28 melanoma = test system: SK-MEL-28 melanoma
MDA-MB-231 breast = test system: MDA-MB-231 breast
HOP-92 NSCLC = test system: HOP-92 NSCLC
UO-31 renal = test system: UO-31 renal

Measured: TGI

CC1(CCC(=O)OC2CCCCC2)OCCO1
> 100 µM: TK-10 renal | A549 NSCLC | UACC-62 melanoma | NCI-H226 lung | IGROV1 ovarian | K-562 leukemia | NCI-H460 lung | SN12C renal | MDA-MB-435 | OVCAR-4 ovarian | CAKI-1 renal | UACC-257 melanoma | M14 melanoma | MALME-3M melanoma | HS 578T breast | NCI-H23 lung | T-47D breast | RXF 393 renal | SNB-75 CNS | HCT-15 colon | U251 CNS | DU-145 prostate | SNB-19 CNS | SK-OV-3 ovarian | SF-539 CNS | OVCAR-3 ovarian | EKVX NSCLC | HCT-116 colon | NCI-H522 lung | A498 renal | OVCAR-8 ovarian | MDA-N | PC-3 prostate | SF-295 CNS | COLO 205 colon | 786-0 renal | ACHN renal | NCI/ADR-RES ovarian | LOX IMVI melanoma | KM12 colon | SK-MEL-5 melanoma | SF-268 CNS | HOP-62 NSCLC | SR leukemia | OVCAR-5 ovarian | CCRF-CEM leukemia | MCF7 breast | HT29 colon | SW-620 colon | HL-60(TB) leukemia | SK-MEL-2 melanoma | MOLT-4 leukemia | RPMI-8226 leukemia | SK-MEL-28 melanoma | MDA-MB-231 breast | HOP-92 NSCLC | UO-31 renal

O=C(O)CCC(=O)c1ccc(Cl)cc1
> 100 µM: A549 NSCLC | NCI-H226 lung | IGROV1 ovarian | K-562 leukemia | SN12C renal | MDA-MB-435 | OVCAR-4 ovarian | CAKI-1 renal | M14 melanoma | T-47D breast | RXF 393 renal | SNB-75 CNS | DU-145 prostate | SNB-19 CNS | SK-OV-3 ovarian | SF-539 CNS | OVCAR-3 ovarian | EKVX NSCLC | HCT-116 colon | OVCAR-8 ovarian | MDA-N | SF-295 CNS | COLO 205 colon | 786-0 renal | LOX IMVI melanoma | KM12 colon | SK-MEL-5 melanoma | HOP-62 NSCLC | SR leukemia | OVCAR-5 ovarian | CCRF-CEM leukemia | HT29 colon | SW-620 colon | HL-60(TB) leukemia | MOLT-4 leukemia | RPMI-8226 leukemia | SK-MEL-28 melanoma | HOP-92 NSCLC | UO-31 renal
